Patent US20110123562A1, “ANTI-CANCER ACTIVE SUBSTANCE FROM ANTRODIA CAMPHORATA, METHOD FOR PREPARING THE SAME AND USE THEREOF” (priority 2009, published 2011)

Legend:
Format in all cases: cell-based
HepG2 cells [1] = test: Anti-proliferation of HepG2 cells, MTS assay
Protocol: (§1) HepG2 cells were obtained from American Type Culture Collection, ATCC, Rockville, Md., U.S.A. and were maintained in Williams medium E (WME), containing 10 mM/L HEPES, 5 μg/mL insulin, 2 μg/mL, glucagon, 0.05 μg/mL hydrocortisone, and 5% fetal bovine serum (Gibco Life Technologies, Grand Island, N.Y., USA). Colon cancer cells (CT26, BCRC 60443), prostate cancer cells (LNCaP, BCRC 60088) and breast cancer cells (MDA-MB-231, BCRC 60425) were obtained from the Biosources Collection and Research Center (BCRC) in the Food industry Research and Development Institute (Hsinchu, Taiwan).
HepG2 cells in WME were cultured on a 96-well cell culture plate (2.5×10^4cells per well) and incubate at 37° C. with 5% CO2. After 4 hours incubation, replace the medium with different concentrations of Antrodia camphorata sample extracts. The Antrodia camphorata extracts were dissolved in 1% dimethyl sulfoxide (DMSO) and mixed with WME medium so as to prepare extracts at different concentrations and the final concentration of DMSO was maintained below 1%. Control cultures contained only extraction solvents, and blank wells contained 100 μL growth medium with no cells. After 72 and 96 h of incubation, cell proliferation was determined by MTS assay (MTS-based cell titer 96 non-radioactivity cell proliferation assay, Promega, Madison, Wis., U.S.A.) so as to examine the anti-hepatoma activity. MTS is a colorimetric method utilizing a tetrazolium reagent. Cell proliferation was determined at 72 and 96 h from the MTS absorbance reading at 490 nm for each concentration compared with the control. […] The EC50 of a sample is defined as the median effective dose of a sample (the concentration of the sample which results in 50% of cell viability) after treating the cancer cells for a certain period of time. At least three replications of each sample were tested to confirm cell proliferation and cytotoxicity. The selective effect on cancer cells was expressed as SI (selective index) value. The SI value was determined as the ratio of CC50 versus EC50 for a tested sample.

HepG2 cells [2] = test: Cytotoxicity (CC50) on HepG2 cells, MTS assay; settings: concentration reducing cell viability to 50% of control in 24 h
Protocol: as §1
(§2) HepG2 cells in WME were cultured on a 96-well cell culture plate (2.5×10^4cells per well) and incubate at 37° C. with 5% CO2. After 4 hours incubation, replace the medium with different concentrations of Antrodia camphorata sample extracts. […] After 72 and 96 h of incubation, cell proliferation was determined by MTS assay (MTS-based cell titer 96 non-radioactivity cell proliferation assay, Promega, Madison, Wis., U.S.A.) so as to examine the anti-hepatoma activity. […] Cell proliferation was determined at 72 and 96 h from the MTS absorbance reading at 490 nm for each concentration compared with the control. […] The selective effect on cancer cells was expressed as SI (selective index) value. The SI value was determined as the ratio of CC50 versus EC50 for a tested sample.

[3] = tested on: colon cancer cells (CT26); test: Anti-proliferative activity against colon cancer cells
Protocol: as §1, §2

[4] = tested on: prostate cancer cells (LNCaP); test: Anti-proliferative activity against prostate cancer cells
Protocol: as §1, §2

[5] = tested on: breast cancer cells (MDA-MB-231); test: Anti-proliferative activity against breast cancer cells; settings: MDA-MB-231 breast cancer cells
Protocol: as §1, §2

- EC50 72 hours (HepG2 cells [1]; 72 h treatment, MTS): 0.1 µg/mL
- EC50 96 hours (HepG2 cells [1]; 96 h treatment, MTS): 0.08 µg/mL
- IC50 [3]: 48.12 ± 5.61 µg/mL
- IC50 [4]: 16.841 ± 3.41 µg/mL
- IC50 [5]: 0.091 µg/mL
Substance: 4-acetylantroquinonol B
- anti-proliferative activity compared to crude extract (HepG2 cells [1]): 50 times
- CC50 (HepG2 cells [2]): > 10 µg/mL
- cell viability [3]: below 50%
- cell viability [4]: below 50%
- cell viability [5]: below 50%
